Laboratory results from article PMC9854712 (Antioxidants, 2023).

Legend:
DU-145 cells = experiment: MTT cell viability assay, DU-145; type: cell-based; conditions: for viability at 10 µM: Homo sapiens, DU-145, 48 h, read-out: Cell growth % at 10 µM, DU-145
Method: (§1) The cell lines were obtained from the American Type Culture Collection (ATCC). Five tumor cell lines (MDA-MB-231, MCF-7, HCT116, HTB-54, and DU-145) and two non-tumorigenic cells (184B5 and BEAS-2B) were grown in RPMI 1640 medium (Gibco), and the HT-29 tumor cell line was grown in McCoy’s medium. Both mediums were supplemented with 10% fetal bovine serum (FBS; Gibco) and 1% antibiotics (10.00 units/mL penicillin and 10.00 μg/mL streptomycin; Gibco). Cells were preserved in tissue culture flasks at 37 °C and 5% CO2. The culture medium was replaced every three days.
(§2) The effect of each compound on cell viability was tested using the MTT assay. […] Selected compounds were then tested at seven different concentrations (0.5–100 μM) in MCF-7, HCT116, HT-29, HTB-54, 184B5 and BEAS-2B cells. Cells were seeded at 10^4 per well onto flat-bottomed 96-well culture plates. They were treated with either DMSO or increasing concentration of the corresponding compound for 48 h. Then, they were incubated with 20 μL of 3-(4,5-dimethylthiazol-2-yl)-2,5-diphenyltetrazolium bromide (MTT) (2 mg /mL stock; Aldrich) for 2,5 h and analyzed for their ability to generate a purple formazan dye. These formazan crystals were dissolved in 50 μL of DMSO. The absorbance was measured at a wavelength of 550 nm and the ratio of viable cells was calculated.
(§3) Results are expressed as cell viability % at 10 μM. Selectivity index were calculated as the ratio of the IC50 values determined for the non-malignant and the tumor cells in breast (IC50 (184B5)/IC50 (MCF-7)) and lung (IC50 (BEAS-2B)/IC50 (HTB-54)) cell lines. Data were obtained from at least three independent experiments performed in triplicates.

HT-29 cells = experiment: MTT cell viability assay, HT-29; type: cell-based; conditions: 48 h; for viability at 10 µM: Homo sapiens, HT-29, 10 µM, read-out: Cell growth % at 10 µM, HT-29
Method: as §1, §2, §3

HTB-54 cells = experiment: MTT cell viability assay, HTB-54; type: cell-based; conditions: 10 µM, 48 h, MTT; for viability at 10 µM: HTB-54, read-out: Cell growth % at 10 µM, HTB-54
Method: as §1, §2, §3

AChE = biological target: T1, AChE (Rattus norvegicus, UniProt P37136); experiment: AChE inhibition by Ellman's method (rat frontal cortex homogenate); type: biochemical; conditions: at 10^−6 M, Ellman's method
T1 construct: from tissue; host or cells: frontal cortex of male Wistar rats (crude homogenate)
T1 sequence (P37136 32-614): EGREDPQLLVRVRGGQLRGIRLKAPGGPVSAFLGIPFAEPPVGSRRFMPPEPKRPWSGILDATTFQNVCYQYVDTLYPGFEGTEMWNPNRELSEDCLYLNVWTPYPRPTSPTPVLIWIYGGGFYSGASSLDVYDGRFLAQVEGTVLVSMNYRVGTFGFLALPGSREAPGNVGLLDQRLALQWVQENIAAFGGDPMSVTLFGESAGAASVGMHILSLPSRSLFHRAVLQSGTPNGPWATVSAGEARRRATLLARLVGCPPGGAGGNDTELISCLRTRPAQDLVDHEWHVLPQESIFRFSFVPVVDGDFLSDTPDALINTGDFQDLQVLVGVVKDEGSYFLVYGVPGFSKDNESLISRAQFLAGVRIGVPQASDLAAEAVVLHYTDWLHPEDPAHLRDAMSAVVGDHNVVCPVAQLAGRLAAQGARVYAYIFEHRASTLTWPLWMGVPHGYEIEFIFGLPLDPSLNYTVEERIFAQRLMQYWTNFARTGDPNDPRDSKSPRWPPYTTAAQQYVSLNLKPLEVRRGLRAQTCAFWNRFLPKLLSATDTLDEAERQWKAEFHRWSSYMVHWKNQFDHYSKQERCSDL
Method: Frontal cortex tissue obtained from male Wistar rats was homogenized in 39 volumes of 75 mM sodium phosphate buffer (pH 7.4). A mixture of 260 μL containing the compounds assessed, acetylthiocholine iodide and 5 μL tissue homogenate was incubated for 8 min. The reaction was then terminated by adding 50 μL 3% (w/v) sodium dodecyl sulphate followed by 50 μL 0.2% (w/v) 5,5′-dithio-bis(2-nitrobenzoic) acid to produce the yellow anion of 5-thio-2-nitro-benzoic-acid. The extent of the color production was measured spectrophotometrically at 405 nm using Multiskan Ex (Thermo Electron Corporation). […] Results are expressed as the mean ± SD and each experiment was repeated three times.

MDA-MB-231 cells = experiment: MTT cell viability assay, MDA-MB-231; type: cell-based; conditions: for viability at 10 µM: Homo sapiens, MDA-MB-231, 48 h, read-out: Cell growth % at 10 µM, MDA-MB-231
Method: as §1, §2, §3

Compound	viability at 10 µM (DU-145 cells)	viability at 10 µM (HT-29 cells)	viability at 10 µM (HTB-54 cells)	inhibition at 1 µM (AChE)	viability at 10 µM (MDA-MB-231 cells)	Cell growth % at 10 µM, DU-145 (DU-145 cells; 48 h)	Cell growth % at 10 µM, HT-29 (HT-29 cells; 10 µM)	Cell growth % at 10 µM, HTB-54 (HTB-54 cells)	% AChE Inhibition (AChE)	Cell growth % at 10 µM, MDA-MB-231 (MDA-MB-231 cells; 48 h)
C=CC[Se]C(=O)c1ccccc1Nc1cccc(C(F)(F)F)c1 [Compound 19a, Se-allyl 2-(3-trifluoromethylphenyl)aminobenzoselenoate]	17 ± 2.9%	46 ± 8.7%	16.3 ± 7.6%	19.3 ± 2%	81.6 ± 9.7%	–	–	–	–	–
C=CC[Se]C(=O)CCc1ccccc1 [Compound 6a, Se-allyl 3-phenylpropaneselenoate]	26.9 ± 4.4%	63.7 ± 12.3%	36.3 ± 7%	18.7 ± 12.4%	35.9 ± 2.6%	–	–	–	–	–
C#CC[Se]C(=O)c1ccccc1Nc1cccc(C(F)(F)F)c1 [Compound 19b]	25.2 ± 2.2%	61.6 ± 9.8%	43.6 ± 18.4%	21.1 ± 2.6%	92.8 ± 10.2%	–	–	–	–	–
C#CC[Se]C(=O)c1ccco1 [Compound 11b, Se-prop-2-ynyl furan-2-carboselenoate]	70 ± 4.5%	> 100%	75.4 ± 15.5%	27.2 ± 4.1%	99 ± 11.2%	–	–	–	–	–
C#CC[Se]C(=O)c1ccccc1 [Compound 2b, Se-prop-2-ynyl benzoselenoate]	72.9 ± 13.6%	78.3 ± 6.9%	78.3 ± 11.4%	26.9 ± 7.3%	79.3 ± 18.7%	–	–	–	–	–
C#CC[Se]C(=O)c1ccno1 [Compound 12b, Se-prop-2-ynyl isoxazole-5-carboselenoate]	95.1 ± 12.3%	81.3 ± 11.1%	97.6 ± 7.1%	21.7 ± 7.9%	92.5 ± 15.1%	–	–	–	–	–
C#CC[Se]C(=O)c1ccccc1Cl [Compound 3b, Se-prop-2-ynyl 2-chlorobenzoselenoate]	41.6 ± 3.5%	81.8 ± 15.2%	> 100%	23.7 ± 9%	93.2 ± 10.2%	–	–	–	–	–
C=CC[Se]C(=O)c1ccc2c(c1)OCO2 [Compound 4a, Se-allyl benzodioxole-5-carboselenoate]	> 100%	33.6 ± 12.6%	67.6 ± 15.1%	2.5 ± 9.3%	97.3 ± 10.4%	–	–	–	–	–
C#CC[Se]C(=O)CCc1ccccc1 [Compound 6b, Se-prop-2-ynyl 3-phenylpropaneselenoate]	76.6 ± 12%	–	83.4 ± 7.7%	24.5 ± 6.7%	78.9 ± 8.4%	–	–	–	–	–
C=CC[Se]C(=O)c1cccnc1 [Compound 7a, Se-allyl pyridine-3-carboselenoate]	51.7 ± 9.8%	64.3 ± 14.1%	22 ± 5.1%	13.6 ± 5.5%	35.3 ± 6.4%	–	–	–	–	–
C#CC[Se]C(=O)c1cccnc1 [Compound 7b, Se-prop-2-ynyl pyridine-3-carboselenoate]	54.6 ± 4.5%	> 100%	91.4 ± 6.6%	24.9 ± 2.2%	91.3 ± 8.3%	–	–	–	–	–
C=CC[Se]C(=O)C12CC3CC(CC(C3)C1)C2 [Compound 1a, Se-allyl adamantane-1-carboselenoate]	> 100%	91 ± 3.6%	72.1 ± 8.1%	19.3 ± 4.1%	92.6 ± 12.7%	–	–	–	–	–
C#CC[Se]C(=O)c1sccc1Cl [Compound 10b, Se-prop-2-ynyl 3-chlorothiophene-2-carboselenoate]	66.6 ± 8.7%	80.2 ± 10.9%	81.2 ± 11.6%	24.4 ± 7.1%	62.5 ± 7.7%	–	–	–	–	–
C#CC[Se]C(=O)c1ccccc1O [Compound 13b, Se-prop-2-ynyl 2-hydroxybenzoselenoate]	26.8 ± 5.5%	70.2 ± 13.2%	82.1 ± 7.6%	21.5 ± 9.5%	52.3 ± 7.9%	–	–	–	–	–
C#CC[Se]C(=O)/C=C/c1ccccc1 [Compound 5b, Se-prop-2-ynyl 3-phenylprop-2E-eneselenoate]	70.5 ± 11.5%	80.8 ± 8.5%	79.8 ± 7.7%	26 ± 3.7%	64.8 ± 14.7%	–	–	–	–	–
C#CC[Se]C(=O)c1ccccc1Nc1cccc(C)c1C [Compound 18b, Se-prop-2-ynyl 2-(2,3-dimethylphenyl)aminobenzoselenoate]	32.6 ± 4.6%	66.5 ± 9.5%	62.3 ± 8.3%	20 ± 2.4%	99 ± 11.2%	–	–	–	–	–
C=CC[Se]C(=O)c1ccccc1Nc1cccc(C)c1C [Compound 18a, Se-allyl 2-(2,3-dimethylphenyl)aminebenzoselenoate]	74.7 ± 13.7%	71.5 ± 11.7%	40.9 ± 18.5%	18.4 ± 3.6%	85.9 ± 9.5%	–	–	–	–	–
C=CC[Se]C(=O)c1ccccc1 [Compound 2a, Se-allyl benzoselenoate]	65.6 ± 5.6%	85.3 ± 19.4%	43.2 ± 9%	22.6 ± 1.6%	37.9 ± 3.6%	–	–	–	–	–
C#CC[Se]C(=O)c1cccs1 [Compound 9b, Se-prop-2-ynyl thiophene-2-carboselenoate]	22.3 ± 2.7%	76 ± 13.5%	58.9 ± 7.8%	20.6 ± 2.7%	70.2 ± 6.9%	–	–	–	–	–
Se-prop-2-ynyl 3a,7a-dihydrobenzo[d][1,3]dioxole-5-carboselenoate [Compound 4b]	–	–	–	–	–	19.7 ± 2.2%	50.6 ± 7.8%	57.8 ± 8.1%	16.5 ± 10.6%	62.6 ± 7.4%
C=CC[Se]C(=O)c1cccs1 [Compound 9a, Se-allyl thiophene-2-carboselenoate]	48.6 ± 6.2%	99.5 ± 8.3%	64.8 ± 8.5%	25.9 ± 2.4%	89.4 ± 4.9%	–	–	–	–	–
C#CC[Se]C(=O)Cc1c(C)n(C(=O)c2ccc(Cl)cc2)c2ccc(OC)cc12 [Compound 17b, Se-prop-2-ynyl 2-(1-(4-chlorobenzoyl)-5-methoxy-2-methyl-1H-indol-3-yl)ethaneselenoate]	19.2 ± 4%	66.3 ± 10.2%	85.9 ± 5.1%	23 ± 6.7%	59.1 ± 11.5%	–	–	–	–	–
C=CC[Se]C(=O)/C=C/c1ccccc1 [Compound 5a, Se-allyl 3-phenylprop-2E-eneselenoate]	83.3 ± 7.8%	87.6 ± 7.9%	46.1 ± 5.6%	8.7 ± 4.9%	91.1 ± 16.8%	–	–	–	–	–
C=CC[Se]C(=O)c1ccccc1Cl [Compound 3a, Se-allyl 2-chlorobenzoselenoate]	39.8 ± 6.3%	63.2 ± 16.9%	37.5 ± 7.3%	21.5 ± 7.5%	29.7 ± 6.4%	–	–	–	–	–
C#CC[Se]C(=O)C12CC3CC(CC(C3)C1)C2 [Compound 1b, Se-prop-2-ynyl adamantane-1-carboselenoate]	62.7 ± 7.7%	87.9 ± 12.1%	86 ± 11.6%	18 ± 7.9%	71.3 ± 8%	–	–	–	–	–
